Experimental data as given in patent US7635779B2, “Oxy substituted flavones as antihyperglycemic and antidyslipidemic agents” (Council of Scientific & Industrial Research, priority 2004, dated 2009).
Marks after values point to notes of the source that are not given here.

Assays:
[1] = tested on: Swiss mice; test: Gross behaviour: sensory responses (reflexes, hot plate nociceptive response); type: in vivo, mouse; details: 100 mg/kg p.o.; for Nociceptive reaction time MEAN ± SE: hot plate 55° C.
Description: • i). Reflexes: Pinna, corneal and righting reflexes were tested [Normal (control), sluggish or absent] • ii). Nociceptive Response: Reaction time to nociceptive response was observed by hot plate analgesia meter (Columbus Instruments,USA). The cut-off period for thermal nociception (55° C.) to mice was 15 sec. Results • i). Reflexes: Corneal, pinna and righting reflexes were intact in 34 and 49 treated mice. • ii).

[2] = tested on: db/db mice; test: Antidyslipidemic activity in db/db mice; type: in vivo, mouse; details: for % Fall in lipid levels HDL: HDL-cholesterol; for % Fall in lipid levels HDL / % Fall in lipid levels Chol.: + marks a rise; for % Fall in lipid levels Chol.: cholesterol; for % Fall in lipid levels TG: triglycerides
Text: The db/db mouse is a well-characterized model of type II diabetes. The background for the db/db mouse is the C57BL/Ks strain. The major deficiency of the C57BL/KsBom-db mouse (db/db) is lack of a functional leptin receptor. This leads to defective leptin signaling and a complete lack of feedback from leptin. […] The db/db mouse develops NIDDM from around week 10. The disease is stable until week 20, where destruction of pancreatic β-cells can be recognized clinically as decreasing levels of plasma insulin and very severe hyperglycemia. The male mice are more diabetic than female and will normally die earlier. The advantage of using male mice for experimental purposes is that the fluctuations in plasma parameters are less than in the females where the estrogen cycles affects the clinical diabetes mellitus. The optimal age of db/db mice used for experiments will be from week 12 to 18 when they have developed NIDDM with diabetic dyslipidemia but still have functional β-cells in the pancreas. C57BL/KsBom-db mice 12-18 weeks, 40-50 g bred in the animal house of CDRI, Lucknow. 10 male mice were used in the experiments. The mice were housed in groups of 5 individuals in a room controlled for temperature (23+2° C.) and 12/12 hours light/dark cycle (lights on at 6.00 am). Body weight was measured daily from day 1 to day 10. All animals had free access to fresh water and to normal chow except on the days of the postprandial protocol day 6 and during the overnight fast before the OGTT on day 10. Blood glucose was checked every morning up till day 5. On day 6 postprandial protocol was employed, in this method blood glucose was checked at −0.30 min and 0 h. Test compounds were given to the treatment group whereas control group received only gum acacia (1.0%); the blood glucose was again checked at 1, 2, 3, 4 and 6 h post test compound treatment. Finally on day 10 an oral glucose tolerance test (OGTT) was performed after an overnight fasting. Blood glucose was measured at −0.30 min and test drugs were fed, blood glucose was again measured at 0.0 min post treatment, at this juncture glucose solution was given at a dose of 3 gm/kg to all the groups including control group; the profile of blood glucose was checked at 30 min, 60 min, 90 min and 120 min post glucose administration. Quantitative glucose tolerance of each animal was calculated by Area Under Curve (AUC) method (Prism Software). Comparing the AUC of experimental and control groups determined the percentage antihyperglycemic activity. Statistical comparison was made by Dunnett's test.
Cholesterol and triglycerides were estimated using the same procedures as given above.
HDL-Cholesterol was estimated using the kit provided by the Roche Diagnostics. Cholestest N HDL is a liquid reagent that directly measures the HDL-cholesterol concentration in serum by a new method that is based on the selective solubilising effect of proprietary detergent to the different lipoproteins. In the assay system, only HDL is solubilised by a special detergent; other lipoproteins are not disrupted. After HDL is selectively disrupted, HDL cholesterol is measured enzymatically (Gordon, T.; Casstelli, W. P.; Hjortland, M. C.; Kannel, W. B.; Dawber, T. R. High density lipoproteins as a protective factor against coronary heart disease, Am. J. Med. 1977, 62, 707-714.).

[3] = tested on: sucrose loaded rat; test: Sucrose loaded rat model (SLM), antihyperglycemic activity; type: in vivo; details: for inhibition in vivo at 100 mg/kg: Rattus norvegicus, po, 2 h, read-out: % Fall in blood glucose levels, SLM
Description: Male albino rats of Charles Foster/Wistar strain of average body weight 160±20 g were selected for this study. The blood glucose level of each animal was checked by glucometer using glucostrips (Boehringer Mannheim) after 16 h starvation. Animals showing blood glucose levels between 3.33 to 4.44 mM (60 to 80 mg/dl) were divided into groups of five to six animals in each. Animals of experimental group were administered suspension of the desired synthetic compound orally (made in 1.0% gum acacia) at a dose of 100-mg/kg-body weight. Animals of control group were given an equal amount of 1.0% gum acacia. A sucrose load (10.0 g/kg) was given to each animal orally exactly after 30 min post administration of the test sample/vehicle. Blood glucose profile of each rat was again determined at 30, 60, 90 and 120 min post administration of sucrose by glucometer. Food but not water was withheld from the cages during the course of experimentation. Quantitative glucose tolerance of each animal was calculated by Area Under Curve (AUC) method (Prism Software). Comparing the AUC of experimental and control groups determined the percentage antihyperglycemic activity. Statistical comparison was made by Dunnett's test.

[4] = tested on: streptozotocin-induced diabetic rats; test: Sucrose-challenged streptozotocin-induced diabetic rats (STZ-S); type: in vivo, rat; details: for % Fall in blood glucose levels, STZ-S 5 h / % Fall in blood glucose levels, STZ-S 24 h: 100 mg/kg oral
Description: Male albino rats of Sprague Dawley strain of body weight 160+20 g were selected for this study. Streptozotocin (Sigma, USA) was dissolved in 100 mM citrate buffer pH 4.5 and calculated amount of the fresh solution was injected to overnight fasted rats (45 mg/kg) intraperitoneally. Blood glucose level was checked 48 h later by glucostrips and animals showing blood glucose values between 144 to 270 mg/dl (8 to 15 mM) were included in the experiment and termed diabetic. The diabetic animals were divided into groups consisting of five to six animals in each group. Animals of experimental groups were administered suspension of the desired test samples orally (made in 1.0% gum acacia) at a dose of 100-mg/kg-body weight. Animals of control group were given an equal amount of 1.0% gum acacia. A sucrose load of 2.5-g/kg body weight was given after 30 minutes of compound administration. After 30 minutes of post sucrose load blood glucose level was again checked by glucostrips at 30, 60, 90, 120, 180, 240, 300 min and at 24 h, respectively. Animals not found diabetic after 24 hours post treatment of the test sample were not considered and omitted from the calculations and termed as non-responders. […] Food but not water was withheld from the cages during the experimentation. Comparing the AUC of experimental and control groups determined the percent antihyperglycemic activity. Statistical comparison between groups was made by Student's ‘t’ test.
As depicted in the FIGURE, a dose response curve of 34 was obtained by administering different doses of test compound to streptozotocin-induced diabetic rats (Table 6). […]

Corneal, pinna and righting reflexes [1] | Effect on nociceptive reaction time as compared to control [1] | Sensory responses [1] | Nociceptive reaction time MEAN ± SE ([1]; 30 min) | Nociceptive reaction time MEAN ± SE ([1]; 60 min) | Nociceptive reaction time MEAN ± SE ([1]; 90 min) | Nociceptive reaction time MEAN ± SE ([1]; 120 min) | Nociceptive reaction time MEAN ± SE ([1]; Pre-tt (0)) | SMILES | % Fall in lipid levels HDL [2] | % Fall in lipid levels Chol. [2] | % Fall in lipid levels TG [2] | inhibition in vivo at 100 mg/kg [3] | % Fall in blood glucose levels, STZ-S 5 h [4] | % Fall in blood glucose levels, STZ-S 24 h [4] | further results
intact | no significant effect | not affected | 4.66 ± 0.6 s | 4.10 ± 0.2 s | 3.66 ± 0.3 s | 3.45 ± 0.1 s | 4.61 ± 0.2 s | CC(C)NCC(O)COc1ccc2c(=O)cc(-c3cc(O)cc(O)c3)oc2c1 (stereo not drawn) [Compound 49, 3′,5′-Dihydroxy-7-(2-hydroxy-3-iso-propylamino-propoxy)-flavone] | +12.7% | 17.2% | 24.1% | 29% | 26.9** % | 13.2* % | –
– | – | – | – | – | – | – | – | COc1cc(-c2cc(=O)c3ccc(OCCCOc4ccc(C=C5SC(=O)NC5=O)cc4)cc3o2)cc(OC)c1OC [Compound 65, 7-{3-[4-(thiazolidin-2,4-dione-5-ylidinemethyl)-phenoxy]-propoxy}-3′,4′,5′-trimethoxy-flavone] | 35.2% | 1.06% | 19.1% | – | 16.1% | 11.0% | % Fall in blood glucose levels, SLM ([3]; 100 mg/kg oral, AUC vs control): 29.30%; Antihyperglycemic (glucose lowering) activity in words ([3]; SLM as well as STZ model): significant and consistent glucose lowering activity
intact | no significant effect | not affected | 4.84 ± 0.3 s | 4.30 ± 0.2 s | 3.52 ± 0.1 s | 3.08 ± 0.2 s | 3.52 ± 0.2 s | CC(C)(C)NCC(O)COc1ccc2c(=O)cc(-c3cc(OCc4ccccc4)cc(OCc4ccccc4)c3)oc2c1 (stereo not drawn) [Compound 34, 7-(3-tert-Butylamino-2-hydroxy-propoxy)-3′,5′-dibenzyloxy-flavone] | +19.3% | +26.9% | 33.5% | 29.4% | 21.6** % | 28.7** % | % Fall in blood glucose levels 5 h ([4]; Dose 25, 5 h): 11.1%; % Fall in blood glucose levels 24 h ([4]; Dose 25, 24 h): 13.6%; % Fall in blood glucose levels 5 h ([4]; Dose 50, 5 h): 9.62%; % Fall in blood glucose levels 24 h ([4]; Dose 50, 24 h): 13.8%; % Fall in blood glucose levels 5 h ([4]; Dose 100, 5 h): 19.8%; % Fall in blood glucose levels 24 h ([4]; Dose 100, 24 h): 21.9%; % Fall in blood glucose levels 5 h ([4]; Dose 150, 5 h): 24.3%; % Fall in blood glucose levels 24 h ([4]; Dose 150, 24 h): 30.5%; % Fall in blood glucose levels 5 h ([4]; Dose 200, 5 h): 38.1%; % Fall in blood glucose levels 24 h ([4]; Dose 200, 24 h): 37.0%; % Fall in blood glucose levels 5 h ([4]; Dose 250, 5 h): 40.7%; % Fall in blood glucose levels 24 h ([4]; Dose 250, 24 h): 45.5%; ED50 ([4]; Rattus norvegicus, STZ-S model, dose response): 90 mg/kg
